Values of other authors, collected in article PMC12211128, “Safety, tolerability, pharmacokinetic and pharmacodynamic effects of the muscarinic M1 positive allosteric modulator VU0467319 for Alzheimer’s disease: a single ascending-dose study in healthy participants” (Alzheimer's Research & Therapy, 2025).

Legend:
[1] = tested on: Parkinson's disease; design: method as in PMID 39761063; settings: cited from earlier work
[2] = tested on: M1 mAChR; settings: cited from earlier work

| Structure (SMILES) | cognitive performance in Parkinson's disease [1] | agonist and PAM properties at M1 [2] |
| --- | --- | --- |
| Cc1c(Cc2ccc(-n3cccn3)cc2)cc2c(c1F)CN([C@H]1COCC[C@@H]1O)C2=O [TAK-071] | produced improvement in cognitive performance | – |
| COc1ccc(Cn2cc(C(=O)O)c(=O)c3ccccc32)cc1 [BQCA, benzyl quinolone carboxylic acid, reference compound] | – | both agonist and PAM properties |
